Reference: PubChem BioAssay (NCI)
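Each compound was tested at five concentrations against cells in 96-well plates for 48 hours. The concentration for full growth arrest is given as TGI.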

How the values were obtained:
Assay in all cases: DTP human tumour cell line panel, 48 h
U251 CNS = tested on: U251 CNS
SF-268 CNS = tested on: SF-268 CNS
UO-31 renal = tested on: UO-31 renal
COLO 205 colon = tested on: COLO 205 colon
HT29 colon = tested on: HT29 colon
HOP-92 NSCLC = tested on: HOP-92 NSCLC
UACC-62 melanoma = tested on: UACC-62 melanoma
SNB-75 CNS = tested on: SNB-75 CNS
HS 578T breast = tested on: HS 578T breast
MDA-MB-231 breast = tested on: MDA-MB-231 breast
SK-OV-3 ovarian = tested on: SK-OV-3 ovarian
TK-10 renal = tested on: TK-10 renal
A498 renal = tested on: A498 renal
CCRF-CEM leukemia = tested on: CCRF-CEM leukemia
HCT-15 colon = tested on: HCT-15 colon
OVCAR-5 ovarian = tested on: OVCAR-5 ovarian
UACC-257 melanoma = tested on: UACC-257 melanoma
SN12C renal = tested on: SN12C renal
NCI-H460 lung = tested on: NCI-H460 lung
SK-MEL-2 melanoma = tested on: SK-MEL-2 melanoma
SR leukemia = tested on: SR leukemia
MOLT-4 leukemia = tested on: MOLT-4 leukemia
K-562 leukemia = tested on: K-562 leukemia
PC-3 prostate = tested on: PC-3 prostate
BT-549 breast = tested on: BT-549 breast
HCC-2998 colon = tested on: HCC-2998 colon
MDA-N = tested on: MDA-N
NCI-H522 lung = tested on: NCI-H522 lung
SNB-19 CNS = tested on: SNB-19 CNS
MDA-MB-435 = tested on: MDA-MB-435
IGROV1 ovarian = tested on: IGROV1 ovarian
KM12 colon = tested on: KM12 colon
T-47D breast = tested on: T-47D breast
NCI-H23 lung = tested on: NCI-H23 lung
786-0 renal = tested on: 786-0 renal
OVCAR-3 ovarian = tested on: OVCAR-3 ovarian
LOX IMVI melanoma = tested on: LOX IMVI melanoma
HOP-62 NSCLC = tested on: HOP-62 NSCLC
EKVX NSCLC = tested on: EKVX NSCLC
DU-145 prostate = tested on: DU-145 prostate
SF-295 CNS = tested on: SF-295 CNS
SW-620 colon = tested on: SW-620 colon
NCI/ADR-RES ovarian = tested on: NCI/ADR-RES ovarian
SK-MEL-5 melanoma = tested on: SK-MEL-5 melanoma
RXF 393 renal = tested on: RXF 393 renal
OVCAR-8 ovarian = tested on: OVCAR-8 ovarian
HCT-116 colon = tested on: HCT-116 colon
MCF7 breast = tested on: MCF7 breast
ACHN renal = tested on: ACHN renal
A549 NSCLC = tested on: A549 NSCLC
OVCAR-4 ovarian = tested on: OVCAR-4 ovarian
CAKI-1 renal = tested on: CAKI-1 renal
M14 melanoma = tested on: M14 melanoma
SK-MEL-28 melanoma = tested on: SK-MEL-28 melanoma
MALME-3M melanoma = tested on: MALME-3M melanoma
NCI-H226 lung = tested on: NCI-H226 lung
SF-539 CNS = tested on: SF-539 CNS
RPMI-8226 leukemia = tested on: RPMI-8226 leukemia

CCCCCC(=O)OCC1(CO)C/C(=C\CC(C(C)C)C(C)C)C(=O)O1 (centres undefined)
TGI (U251 CNS): 85.3 µM | TGI (SF-268 CNS): > 100 µM | TGI (UO-31 renal): > 100 µM | TGI (COLO 205 colon): 53.5 µM | TGI (HT29 colon): > 100 µM | TGI (HOP-92 NSCLC): > 100 µM | TGI (UACC-62 melanoma): > 100 µM | TGI (SNB-75 CNS): > 100 µM | TGI (HS 578T breast): > 100 µM | TGI (MDA-MB-231 breast): > 100 µM | TGI (SK-OV-3 ovarian): > 100 µM | TGI (TK-10 renal): > 100 µM | TGI (A498 renal): > 100 µM | TGI (CCRF-CEM leukemia): > 100 µM | TGI (HCT-15 colon): > 100 µM | TGI (OVCAR-5 ovarian): > 100 µM | TGI (UACC-257 melanoma): > 100 µM | TGI (SN12C renal): > 100 µM | TGI (NCI-H460 lung): > 100 µM | TGI (SK-MEL-2 melanoma): > 100 µM | TGI (SR leukemia): > 100 µM | TGI (MOLT-4 leukemia): 61.8 µM | TGI (K-562 leukemia): 77.5 µM | TGI (PC-3 prostate): > 100 µM | TGI (BT-549 breast): > 100 µM | TGI (HCC-2998 colon): > 100 µM | TGI (MDA-N): > 100 µM | TGI (NCI-H522 lung): 81.3 µM | TGI (SNB-19 CNS): > 100 µM | TGI (MDA-MB-435): > 100 µM | TGI (IGROV1 ovarian): > 100 µM | TGI (KM12 colon): > 100 µM | TGI (T-47D breast): > 100 µM | TGI (NCI-H23 lung): > 100 µM | TGI (786-0 renal): > 100 µM | TGI (OVCAR-3 ovarian): > 100 µM | TGI (LOX IMVI melanoma): 70 µM | TGI (HOP-62 NSCLC): > 100 µM | TGI (EKVX NSCLC): > 100 µM | TGI (DU-145 prostate): > 100 µM | TGI (SF-295 CNS): > 100 µM | TGI (SW-620 colon): 64.4 µM | TGI (NCI/ADR-RES ovarian): > 100 µM | TGI (SK-MEL-5 melanoma): > 100 µM | TGI (RXF 393 renal): > 100 µM | TGI (OVCAR-8 ovarian): 76.2 µM | TGI (HCT-116 colon): > 100 µM | TGI (MCF7 breast): > 100 µM | TGI (ACHN renal): > 100 µM | TGI (A549 NSCLC): > 100 µM | TGI (OVCAR-4 ovarian): > 100 µM | TGI (CAKI-1 renal): > 100 µM | TGI (M14 melanoma): > 100 µM | TGI (SK-MEL-28 melanoma): > 100 µM | TGI (MALME-3M melanoma): > 100 µM | TGI (NCI-H226 lung): > 100 µM

O=C(O)CCCCn1cnc2c(=S)nc[nH]c21
TGI (U251 CNS): > 100 µM | TGI (SF-268 CNS): > 100 µM | TGI (UO-31 renal): > 100 µM | TGI (COLO 205 colon): > 100 µM | TGI (HT29 colon): > 100 µM | TGI (HOP-92 NSCLC): > 100 µM | TGI (UACC-62 melanoma): > 100 µM | TGI (SNB-75 CNS): > 100 µM | TGI (HS 578T breast): > 100 µM | TGI (MDA-MB-231 breast): > 100 µM | TGI (SK-OV-3 ovarian): > 100 µM | TGI (TK-10 renal): > 100 µM | TGI (A498 renal): > 100 µM | TGI (CCRF-CEM leukemia): > 100 µM | TGI (HCT-15 colon): > 100 µM | TGI (OVCAR-5 ovarian): > 100 µM | TGI (UACC-257 melanoma): > 100 µM | TGI (SN12C renal): > 100 µM | TGI (NCI-H460 lung): > 100 µM | TGI (SK-MEL-2 melanoma): > 100 µM | TGI (SR leukemia): > 100 µM | TGI (MOLT-4 leukemia): > 100 µM | TGI (K-562 leukemia): > 100 µM | TGI (PC-3 prostate): > 100 µM | TGI (SF-539 CNS): > 100 µM | TGI (BT-549 breast): > 100 µM | TGI (HCC-2998 colon): > 100 µM | TGI (MDA-N): > 100 µM | TGI (NCI-H522 lung): > 100 µM | TGI (SNB-19 CNS): > 100 µM | TGI (MDA-MB-435): > 100 µM | TGI (IGROV1 ovarian): > 100 µM | TGI (KM12 colon): > 100 µM | TGI (T-47D breast): > 100 µM | TGI (NCI-H23 lung): > 100 µM | TGI (786-0 renal): > 100 µM | TGI (OVCAR-3 ovarian): > 100 µM | TGI (LOX IMVI melanoma): > 100 µM | TGI (HOP-62 NSCLC): > 100 µM | TGI (EKVX NSCLC): > 100 µM | TGI (DU-145 prostate): > 100 µM | TGI (SF-295 CNS): > 100 µM | TGI (SW-620 colon): > 100 µM | TGI (NCI/ADR-RES ovarian): > 100 µM | TGI (SK-MEL-5 melanoma): > 100 µM | TGI (RXF 393 renal): > 100 µM | TGI (OVCAR-8 ovarian): > 100 µM | TGI (HCT-116 colon): > 100 µM | TGI (MCF7 breast): > 100 µM | TGI (ACHN renal): > 100 µM | TGI (A549 NSCLC): > 100 µM | TGI (OVCAR-4 ovarian): > 100 µM | TGI (CAKI-1 renal): > 100 µM | TGI (M14 melanoma): > 100 µM | TGI (SK-MEL-28 melanoma): > 100 µM | TGI (MALME-3M melanoma): > 100 µM | TGI (NCI-H226 lung): > 100 µM | TGI (RPMI-8226 leukemia): > 100 µM
